The values that follow come from patent US11026946B2, “Pharmacologically active alicyclic-substituted pyrazolo[1,5-a]pyrimidine derivatives” (RICHTER GEDEON NYRT., priority 2017, dated 2021).

For this experiment, the target named is T1, GABAB receptor (Rattus norvegicus, UniProt O88871+Q9Z0U4).
T1 construct: from tissue; host or cells: rat brain cortex membranes
Nature of the experiment: In vitro [35S]GTPγS binding assay in rat cortical membranes. The experiment is classed as biochemical. The settings on record: PAM EC50, [35S]GTPγS binding, read-out: In vitro PAM potency. How it is done:
In Vitro [^35S]GTPγS Binding Assay in Rat Cortical Membranes
Cortices of freshly harvested rat brains were dissected on an ice-cold surface and homogenized by a glass Dounce homogeniser immediately in ice-cold buffer containing 50 mM Tris, 5 mM MgCl2 and 1 mM EDTA (pH=7.6). Tissue homogenates were centrifuged at 40000 g for 15 min at 4° C. Membrane pellets were resuspended in the same buffer and membranes were incubated for 10 min at 30° C. in a shaking water bath to eliminate endogenous GABA. Homogenates were centrifuged again under the same conditions. The final pellets were resuspended in ice-cold buffer (pH=7.6) containing 50 mM Tris, 100 mM NaCl, 7 mM MgCl2, 1 mM EDTA and 1 mM dithiotreithol (DTT) to yield a concentration of 20 mg tissue weight/ml and frozen at −70° C. until use. The assay was done in a buffer containing 50 mM Tris (pH=7.4), 100 mM NaCl, 7 mM MgCl2, 1 mM EDTA and 1 mM DTT. Each assay tube contained 150 μL GDP (in a final concentration of 50 μM), 100 μL ligand and 125 μL of the membrane suspension (250 μg tissue/tube). The assay tubes were preincubated for 10 min at 30° C. to assure equilibrium. Nonspecific binding was determined in the presence of 10 μM GTPγS: basal binding was determined in the presence of buffer only. After addition of 50 pM [^35S]GTPγS in a volume of 25 μL to the tubes, membranes were incubated for an additional 60 min at 30° C. The assay was terminated by rapid filtration through Packard UniFilter GF/B using a Packard harvester and washed four times with 1 ml ice-cold buffer. After drying the filters at 40° C. for 1 h, 40 μL Microscint (Packard) was added to the filters and radioactivity of the filters was determined by a TopCount NXT (PerkinElmer, Waltham, Mass.: Alper and Nelson, Eur. J. Pharmacol. 1998, 343, 303-312; Rinken et al, Biochem. Pharmacol. 1999, 57, 155-162). Data thus gathered were used to determine PAM EC50 values for each compound as primary in vitro activity end point.

T1 sequence (O88871 41-940): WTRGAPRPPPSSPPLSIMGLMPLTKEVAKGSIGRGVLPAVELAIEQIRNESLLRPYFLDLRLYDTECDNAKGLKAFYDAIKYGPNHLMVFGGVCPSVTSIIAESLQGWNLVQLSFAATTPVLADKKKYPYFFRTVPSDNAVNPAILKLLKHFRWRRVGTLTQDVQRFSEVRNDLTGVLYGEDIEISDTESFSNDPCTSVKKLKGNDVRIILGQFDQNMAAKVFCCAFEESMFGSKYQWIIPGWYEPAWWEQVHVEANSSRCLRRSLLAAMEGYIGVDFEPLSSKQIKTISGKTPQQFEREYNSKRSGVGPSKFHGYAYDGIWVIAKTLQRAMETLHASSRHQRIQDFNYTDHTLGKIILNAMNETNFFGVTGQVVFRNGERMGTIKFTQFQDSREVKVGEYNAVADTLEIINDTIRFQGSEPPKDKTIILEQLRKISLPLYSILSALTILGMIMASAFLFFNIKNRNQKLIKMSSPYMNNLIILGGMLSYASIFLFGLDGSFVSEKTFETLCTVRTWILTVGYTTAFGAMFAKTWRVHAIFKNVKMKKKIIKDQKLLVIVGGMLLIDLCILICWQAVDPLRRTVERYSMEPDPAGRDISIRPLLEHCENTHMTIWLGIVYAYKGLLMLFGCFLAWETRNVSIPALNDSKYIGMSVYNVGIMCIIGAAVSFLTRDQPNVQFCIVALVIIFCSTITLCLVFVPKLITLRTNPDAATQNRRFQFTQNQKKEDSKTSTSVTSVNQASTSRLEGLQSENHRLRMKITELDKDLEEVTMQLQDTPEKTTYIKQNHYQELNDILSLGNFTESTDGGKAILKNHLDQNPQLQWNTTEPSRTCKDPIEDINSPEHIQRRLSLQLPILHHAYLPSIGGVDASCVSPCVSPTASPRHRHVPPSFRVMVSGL
T1 sequence (Q9Z0U4 17-960 limits assumed): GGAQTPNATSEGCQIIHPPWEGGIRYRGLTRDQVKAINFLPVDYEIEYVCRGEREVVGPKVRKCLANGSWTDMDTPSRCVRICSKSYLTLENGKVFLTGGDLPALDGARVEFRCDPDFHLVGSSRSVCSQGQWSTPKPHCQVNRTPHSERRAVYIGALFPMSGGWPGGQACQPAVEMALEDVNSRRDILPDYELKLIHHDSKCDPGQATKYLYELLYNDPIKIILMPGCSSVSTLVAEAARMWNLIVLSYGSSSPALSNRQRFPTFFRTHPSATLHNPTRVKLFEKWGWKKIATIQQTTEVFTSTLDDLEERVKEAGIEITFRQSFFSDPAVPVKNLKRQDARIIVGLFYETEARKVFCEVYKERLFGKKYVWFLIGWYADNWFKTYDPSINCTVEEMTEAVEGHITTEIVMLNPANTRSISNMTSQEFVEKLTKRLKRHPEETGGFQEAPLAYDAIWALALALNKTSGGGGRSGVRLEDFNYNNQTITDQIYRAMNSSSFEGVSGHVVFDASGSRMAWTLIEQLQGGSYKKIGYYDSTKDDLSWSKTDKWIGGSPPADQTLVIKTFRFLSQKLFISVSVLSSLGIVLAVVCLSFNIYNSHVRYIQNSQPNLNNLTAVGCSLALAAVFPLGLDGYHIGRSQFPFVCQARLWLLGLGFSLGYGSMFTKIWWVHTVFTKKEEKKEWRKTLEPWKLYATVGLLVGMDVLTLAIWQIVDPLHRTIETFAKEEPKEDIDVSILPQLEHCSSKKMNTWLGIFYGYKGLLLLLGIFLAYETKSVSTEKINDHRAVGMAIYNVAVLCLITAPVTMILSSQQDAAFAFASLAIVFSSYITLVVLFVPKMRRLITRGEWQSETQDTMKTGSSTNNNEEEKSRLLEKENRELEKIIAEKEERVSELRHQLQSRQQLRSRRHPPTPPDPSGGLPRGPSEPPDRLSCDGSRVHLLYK

Regarding `Cc1nc2cc([C@H]3CC[C@H](C(F)(F)F)CC3)nn2c(N2CCCC(CF)(C(=O)O)C2)c1C(C)C` (single isomer, unassigned) [Example 6], the EC50 fell in the range of 1 to 10 nM. The figure for `COc1c(C)nc2c(F)c([C@H]3CC[C@H](C(F)(F)F)CC3)nn2c1N1CCC[C@@](C)(C(=O)O)C1` (single isomer, unassigned) [Example 24] is 10 to 100 nM; for `C[C@]1(C(=O)O)CCCN(c2c3c(nc4cc([C@H]5CC[C@H](C(F)(F)F)CC5)nn24)COCC3)C1` [Example 37] it is 100 to 1000 nM; for `COc1c(C)nc2cc([C@H]3CC[C@H](C(F)(F)F)CC3)nn2c1N1CCC[C@@](C)(C(=O)O)C1` (single isomer, unassigned) [Example 20] it is 100 to 1000 nM. Then `Cc1nc2cc([C@H]3CC[C@H](C(F)(F)F)CC3)nn2c(N2CCCC(CF)(C(=O)O)C2)c1C(C)C` (single isomer, unassigned) [Example 7], with < 1 nM. The figure for `CC[C@@]1(C(=O)O)CCCN(c2c(OC)c(C)nc3cc([C@H]4CC[C@H](C(F)(F)F)CC4)nn23)C1` [Example 22] is 100 to 1000 nM.

Regarding `Cc1nc2cc([C@H]3CC[C@H](C(F)(F)F)CC3)nn2c(N2CCC[C@H](C(=O)O)C2)c1C(C)C` [Example 1, (3S)-1-[5-Methyl-6-(propan-2-yl)-2-[trans-4-(trifluoromethyl)cyclohexyl]pyrazolo[1,5-a]pyrimidin-7-yl]piperidine-3-carboxylic Acid], the EC50 was in the range of 1 to 10 nM. Then `COc1c(C)nc2cc([C@H]3CC[C@H](C(F)(F)F)CC3)nn2c1N1CCC[C@](C)(C(=O)O)C1` (single isomer, unassigned) [Example 19], with 10 to 100 nM; and `COc1c(C)nc2c(F)c([C@H]3CC[C@H](C(F)(F)F)CC3)nn2c1N1CCC[C@](C)(C(=O)O)C1` (single isomer, unassigned) [Example 23], with 1 to 10 nM; and `Cc1nc2c(F)c(C3CCC(F)(F)CC3)nn2c(N2CCC[C@@](C)(C(=O)O)C2)c1C(C)C` [Example 40], with 1 to 10 nM. In the case of `Cc1nc2cc(C3CCC(F)(F)CC3)nn2c(N2CCC[C@@](C)(C(=O)O)C2)c1C(C)C` (single isomer, unassigned) [Example 30], the EC50 lay within 1 to 10 nM. Then `CC[C@@]1(C(=O)O)CCCN(c2c(C(C)C)c(C)nc3cc(C4CCC(F)(F)CC4)nn23)C1` (single isomer, unassigned) [Example 32], with 10 to 100 nM; and `CC[C@]1(C(=O)O)CCCN(c2c(OC)c(C)nc3cc([C@H]4CC[C@H](C(F)(F)F)CC4)nn23)C1` [Example 21], with 10 to 100 nM; and `C[C@]1(C(=O)O)CCCN(c2c3c(nc4cc([C@H]5CC[C@H](C(F)(F)F)CC5)nn24)CCOC3)C1` [Example 36], with 100 to 1000 nM. The figure for `CC[C@@]1(C(=O)O)CCCN(c2c(OC)c(C)nc3c(F)c([C@H]4CC[C@H](C(F)(F)F)CC4)nn23)C1` (single isomer, unassigned) [Example 26] is 10 to 100 nM; for `CC[C@]1(C(=O)O)CCCN(c2c(OC)c(C)nc3c(F)c([C@H]4CC[C@H](C(F)(F)F)CC4)nn23)C1` (single isomer, unassigned) [Example 25] it is 10 to 100 nM; for `CC[C@]1(C(=O)O)CCCN(c2c(C(C)C)c(C)nc3cc(C4CCC(F)(F)CC4)nn23)C1` [Example 31] it is 10 to 100 nM. Then `CCc1c(C)nc2cc([C@H]3CC[C@H](C(F)(F)F)CC3)nn2c1N1CCC[C@@](C)(C(=O)O)C1` [Example 27], with 1 to 10 nM; and `Cc1nc2cc([C@H]3CC[C@H](C(F)(F)F)CC3)nn2c(N2CCC[C@@H](C(=O)O)C2)c1C(C)C` [Example 10], with 1 to 10 nM.

Consider `CCCC1(C(=O)O)CCCN(c2c(C(C)C)c(C)nc3cc([C@H]4CC[C@H](C(F)(F)F)CC4)nn23)C1` (single isomer, unassigned) [Example 4], for which the EC50 was in the range of 1 to 10 nM. Then `CCCC1(C(=O)O)CCCN(c2c(C(C)C)c(C)nc3cc([C@H]4CC[C@H](C(F)(F)F)CC4)nn23)C1` (single isomer, unassigned) [Example 5], with 1 to 10 nM.
